Values quoted from earlier work as cited in patent publication KR20140130881A, “보리코나졸을 함유하는 안정한 주사용 조성물” (동아에스티 주식회사, priority 2013, dated 2014).
Values after ≈ are worked out from the molar mass of the structure shown.

aqueous solubility (pH 3, acidic solution): 0.2 mg/mL (≈ 573 µM) | solubility in water (water): 0.7 mg/mL (≈ 2000 µM)
Structure (SMILES): C[C@@H](c1ncncc1F)[C@](O)(Cn1cncn1)c1ccc(F)cc1F [보리코나졸, (2R,3S)-2-(2,4-다이플루오로페닐)-3-(5-플루오로피리미딘-4-일)-1-(1H-1,2,4-트리아졸-1-일)부탄-2-올]
